Experimental data from ChEMBL document CHEMBL4402507, “Tyrosinase inhibitory study of flavonolignans from the seeds of Silybum marianum (Milk thistle)” (Bioorg Med Chem, 2019).
Calls of active or inactive are those of the source. The rule behind the calls is not given here.

Key:
Tyrosinase [1] = molecular target: T1, Tyrosinase (Agaricus bisporus, UniProt O42713); test: Inhibition of monophenolase activity of mushroom tyrosinase assessed as reduction in dopachrome formation using L-Tyrosine substrate by UV-Vis spectrophotometry
T1 sequence (O42713 whole entry): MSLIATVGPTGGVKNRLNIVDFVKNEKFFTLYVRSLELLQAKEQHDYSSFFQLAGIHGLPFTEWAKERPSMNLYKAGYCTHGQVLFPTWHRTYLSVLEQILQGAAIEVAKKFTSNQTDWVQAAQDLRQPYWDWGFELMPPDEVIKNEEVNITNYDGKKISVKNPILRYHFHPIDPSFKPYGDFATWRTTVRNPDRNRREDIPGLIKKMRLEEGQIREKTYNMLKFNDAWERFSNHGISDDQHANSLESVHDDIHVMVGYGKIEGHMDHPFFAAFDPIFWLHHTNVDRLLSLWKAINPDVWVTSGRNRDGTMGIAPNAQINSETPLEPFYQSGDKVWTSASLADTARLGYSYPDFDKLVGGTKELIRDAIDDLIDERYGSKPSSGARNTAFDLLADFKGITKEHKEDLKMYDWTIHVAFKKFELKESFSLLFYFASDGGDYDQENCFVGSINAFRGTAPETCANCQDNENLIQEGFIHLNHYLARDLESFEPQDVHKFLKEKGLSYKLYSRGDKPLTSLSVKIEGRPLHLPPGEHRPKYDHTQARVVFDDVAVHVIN

Tyrosinase [2] = molecular target: T1, Tyrosinase; test: Inhibition of diphenolase activity of mushroom tyrosinase assessed as reduction in dopachrome formation using L-DOPA substrate by UV-Vis spectrophotometry
[3] = molecular target: T2, Tyrosinase (Agaricus bisporus) (UniProt O42713); test: Inhibition of monophenolase activity of mushroom tyrosinase assessed as increase in lag period of monophenolase for oxidation of L-tyrosine substrate at 0.5 to 16 uM by UV-Vis spectrophotometry
T2 sequence (whole entry): T1 sequence (O42713 whole entry)

[4] = molecular target: T2, Tyrosinase (Agaricus bisporus); test: Inhibition of monophenolase activity of mushroom tyrosinase assessed as reduction in steady state rate monophenolase activity for oxidation of L-tyrosine substrate at 0.5 to 16 uM by UV-Vis spectrophotometry
[5] = molecular target: T2, Tyrosinase (Agaricus bisporus); test: Binding affinity to mushroom tyrosinase assessed as Stern-Volmer quenching constant by fluorescence spectrophotometry
[6] = molecular target: T2, Tyrosinase (Agaricus bisporus); test: Binding affinity to mushroom tyrosinase assessed as binding constant by fluorescence spectrophotometry
Tyrosinase [7] = molecular target: T1, Tyrosinase
Tyrosinase [8] = molecular target: T1, Tyrosinase; remark: listed apart in the source
Description: Inhibition of monophenolase activity of mushroom tyrosinase assessed as inhibition constant for free enzyme-inhibitor complex by measuring reduction in dopachrome formation using L-Tyrosine substrate by UV-Vis spectrophotometry

Tyrosinase [9] = molecular target: T1, Tyrosinase; remark: listed apart in the source
Description: Mixed type inhibition of diphenolase activity of mushroom tyrosinase assessed as reduction in dopachrome formation using L-DOPA substrate by UV-Vis spectrophotometry based Dixon plot analysis

Tyrosinase [10] = molecular target: T1, Tyrosinase; remark: listed apart in the source
Description: Inhibition of diphenolase activity of mushroom tyrosinase assessed as inhibition constant for free enzyme-inhibitor complex by measuring reduction in dopachrome formation using L-DOPA substrate by UV-Vis spectrophotometry

[11] = molecular target: T2, Tyrosinase (Agaricus bisporus)
Description: Inhibition of monophenolase activity of mushroom tyrosinase assessed as inhibition constant for enzyme-substrate-inhibitor complex by measuring reduction in dopachrome formation using L-Tyrosine substrate by UV-Vis spectrophotometry

[12] = molecular target: T2, Tyrosinase (Agaricus bisporus); remark: listed apart in the source
Description: Inhibition of diphenolase activity of mushroom tyrosinase assessed as inhibition constant for enzyme-substrate-inhibitor complex by measuring reduction in dopachrome formation using L-DOPA substrate by UV-Vis spectrophotometry

Tyrosinase [13] = molecular target: T1, Tyrosinase; remark: listed apart in the source
Description: Competitive type inhibition of monophenolase activity of mushroom tyrosinase assessed as reduction in dopachrome formation using L-Tyrosine substrate by UV-Vis spectrophotometry based Dixon plot analysis

Tyrosinase [14] = molecular target: T1, Tyrosinase; remark: listed apart in the source
Description: Competitive type inhibition of diphenolase activity of mushroom tyrosinase assessed as reduction in dopachrome formation using L-DOPA substrate by UV-Vis spectrophotometry based Dixon plot analysis

[15] = molecular target: T2, Tyrosinase (Agaricus bisporus); test: Binding affinity to mushroom tyrosinase by fluorescence spectrophotometry
[16] = molecular target: T2, Tyrosinase (Agaricus bisporus); test: Inhibition of monophenolase activity of mushroom tyrosinase assessed as lag time period of monophenolase for oxidation of L-tyrosine substrate at 16 uM by UV-Vis spectrophotometry (reference value: […] secs)
[17] = molecular target: T2, Tyrosinase (Agaricus bisporus); test: Inhibition of monophenolase activity of mushroom tyrosinase assessed as reduction in N-acetyl-L-dopaquinone formation at 25 uM using N-acetyl-L-tyrosine substrate incubated up to 60 mins by HPLC analysis

| IC50 (Tyrosinase [1]) | IC50 (Tyrosinase [2]) | inhibition [3] | inhibition [4] | KSV [5] | KA [6] | Ki (Tyrosinase [7]) | Ki (Tyrosinase [8]) | Ki (Tyrosinase [9]) | Ki (Tyrosinase [10]) | Kis [11] | Kis [12] | Ki (Tyrosinase [13]) | Ki (Tyrosinase [14]) | Activity [15] | TIME [16] | inhibition [17] | SMILES |
| --- | --- | --- | --- | --- | --- | --- | --- | --- | --- | --- | --- | --- | --- | --- | --- | --- | --- |
| 1.7 µM | 12.1 µM | Dose-dependent effect | Dose-dependent effect | 0.261 ×10⁴ L/mol | 6.16 ×10⁶ L/mol | 0.7 µM | 0.7 µM | 8.5 µM | 8.4 µM | 3.7 µM | 27.6 µM | – | – | – | – | – | COc1cc(C2Oc3cc([C@H]4Oc5cc(O)cc(O)c5C(=O)[C@@H]4O)ccc3OC2CO)ccc1O (mixture of isomers) [SILIBININ] |
| 2.1 µM | 16.7 µM | Dose-dependent effect | Dose-dependent effect | 0.267 ×10⁴ L/mol | 6.31 ×10⁶ L/mol | 1.1 µM | 1.1 µM | 12.4 µM | 12.3 µM | 3.2 µM | 29.5 µM | – | – | Dose-dependent effect | 0.0833 h | Active | COc1cc([C@H]2Oc3ccc([C@H]4Oc5cc(O)cc(O)c5C(=O)[C@@H]4O)cc3O[C@@H]2CO)ccc1O [ISOSILYBIN A] |
| 4.9 µM | 19.8 µM | Dose-dependent effect | Dose-dependent effect | 0.0882 ×10⁴ L/mol | 2.42 ×10⁶ L/mol | 4.2 µM | 4.3 µM | 11.6 µM | 12.7 µM | 8 µM | 25.2 µM | – | – | – | – | – | COc1cc([C@@H]2Oc3ccc([C@H]4Oc5cc(O)cc(O)c5C(=O)[C@@H]4O)cc3O[C@H]2CO)ccc1O [ISOSILYBIN B] |
| 3.2 µM | 28.8 µM | Dose-dependent effect | Dose-dependent effect | 0.192 ×10⁴ L/mol | 3.55 ×10⁶ L/mol | 2.1 µM | 2.1 µM | 15.4 µM | 15.2 µM | 2.9 µM | 37.3 µM | – | – | – | – | – | COc1cc([C@@H]2Oc3c(O)cc([C@H]4Oc5cc(O)cc(O)c5C(=O)[C@@H]4O)cc3[C@H]2CO)ccc1O [SILICRISTIN A] |
| 4.5 µM | 44.9 µM | Dose-dependent effect | Dose-dependent effect | 0.109 ×10⁴ L/mol | 2.88 ×10⁶ L/mol | 2.8 µM | 2.8 µM | 35.5 µM | 34.7 µM | 14 µM | 91.3 µM | – | – | – | – | – | COc1cc([C@H]2Oc3c(O)cc([C@H]4Oc5cc(O)cc(O)c5C(=O)[C@@H]4O)cc3[C@@H]2CO)ccc1O [SILICRISTIN B] |
| 2.6 µM | 16.5 µM | Dose-dependent effect | Dose-dependent effect | 0.193 ×10⁴ L/mol | 5.81 ×10⁶ L/mol | 1.7 µM | 2.1 µM | 14.9 µM | 15 µM | 2.3 µM | 90.8 µM | – | – | – | – | – | COc1cc([C@@H]2[C@H]3CO[C@@]4(O)C(=O)[C@@H]2C=C([C@H]2Oc5cc(O)cc(O)c5C(=O)[C@@H]2O)[C@@H]34)ccc1O [SILIDIANIN] |

Continued, compound first:

| SMILES | IC50 (Tyrosinase [1]) | IC50 (Tyrosinase [2]) | inhibition [3] | inhibition [4] | KSV [5] | KA [6] | Ki (Tyrosinase [7]) | Ki (Tyrosinase [8]) | Ki (Tyrosinase [9]) | Ki (Tyrosinase [10]) | Kis [11] | Kis [12] | Ki (Tyrosinase [13]) | Ki (Tyrosinase [14]) | Activity [15] | TIME [16] | inhibition [17] |
| --- | --- | --- | --- | --- | --- | --- | --- | --- | --- | --- | --- | --- | --- | --- | --- | --- | --- |
| COc1cc([C@@H]2Oc3c(O)cc(-c4oc5cc(O)cc(O)c5c(=O)c4O)cc3[C@H]2CO)ccc1O | 7.6 µM | 35.9 µM | Dose-dependent effect | Dose-dependent effect | 0.0634 ×10⁴ L/mol | 2.25 ×10⁶ L/mol | 4.7 µM | 4.6 µM | 36.7 µM | 38.3 µM | 6.4 µM | 146 µM | – | – | – | – | – |
| COc1cc([C@H]2Oc3cc(O)cc(O)c3C(=O)[C@@H]2O)ccc1O | 51.2 µM | 150 µM | – | – | 0.0222 ×10⁴ L/mol | 0.849 ×10⁶ L/mol | – | – | – | – | – | – | 20.5 µM | 73.4 µM | – | – | – |
| O=C1c2c(O)cc(O)cc2O[C@H](c2ccc(O)c(O)c2)[C@H]1O | – | – | – | – | 0.0492 ×10⁴ L/mol | 0.918 ×10⁶ L/mol | – | – | – | – | – | – | – | – | – | – | – |
| O=C1c2c(O)cc(O)cc2O[C@H](c2ccc(O)cc2)[C@H]1O [DIHYDROKAEMPFEROL] | 73.6 µM | > 200 µM | – | – | 0.0199 ×10⁴ L/mol | 0.094 ×10⁶ L/mol | – | – | – | – | – | – | 42 µM | – | Dose-dependent effect | – | – |
